One assay deals with HdhQ111 cells. The assay is described as follows: Mitochondrial superoxide production (MitoSOX) in striatal cells. The class given is cell-based, mouse. Particulars: relative to TAT. The protocol:
To examine mitochondrial superoxide production, the cells were stained with MitoSOX (Invitrogen, 5 μM for 10 min) at 37° C. The cells were then washed with PBS three times and mounted for the image analysis. At least 150 cells/group were counted and quantitated.

The next assay relates to TFAM and mtDNA LSP. Description: TFAM-mtDNA binding assay (biotin-streptavidin pull down). The format is cell-based, mouse. Particulars: HdhQ111 cells, relative to TAT. Here is the method: Total lysates were isolated from cells with the indicated treatments, and then incubated with biotinylated LSP DNA probe (Biotin-LSP) or LSP (control) overnight at 4° C. Then streptavidin agarose beads (Thermo Fisher Scientific) were added for 1 h at 4° C. After incubation, the biotinstreptavidin complex was washed 3-5 times (1 ml/time) at 4° C. and subject to western blot analysis. To validate the LSP binding specificity to TFAM, 10 times (molar ratio) of non-labeled LSP was pre-incubated with an equal amount of lysate for 2 h prior to addition of the biotin-LSP probe.

For a further assay, the target named is T1, ATAD3A (Mus musculus, UniProt Q925I1).
T1 construct: endogenous in cells; host or cells: Neuro2A cells
T1 sequence (Q925I1 1-591): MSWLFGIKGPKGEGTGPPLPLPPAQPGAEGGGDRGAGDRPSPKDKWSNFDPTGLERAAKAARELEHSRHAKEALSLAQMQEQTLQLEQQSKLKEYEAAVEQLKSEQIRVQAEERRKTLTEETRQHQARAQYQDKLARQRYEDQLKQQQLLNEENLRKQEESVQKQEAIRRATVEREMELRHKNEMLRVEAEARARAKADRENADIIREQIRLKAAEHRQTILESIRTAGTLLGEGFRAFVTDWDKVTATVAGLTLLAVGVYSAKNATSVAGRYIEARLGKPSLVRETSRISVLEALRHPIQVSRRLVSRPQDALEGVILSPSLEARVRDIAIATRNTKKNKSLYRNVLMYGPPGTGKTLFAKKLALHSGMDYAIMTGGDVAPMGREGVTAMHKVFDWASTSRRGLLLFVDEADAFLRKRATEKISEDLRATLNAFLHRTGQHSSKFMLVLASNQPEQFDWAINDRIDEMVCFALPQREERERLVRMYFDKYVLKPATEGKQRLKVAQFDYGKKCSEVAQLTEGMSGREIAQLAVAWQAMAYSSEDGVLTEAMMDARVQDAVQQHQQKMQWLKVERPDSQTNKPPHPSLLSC
Description: ATAD3A dimerization by western blot, Neuro2A cells. The class given is cell-based. Particulars: Neuro2A cells exposed to 3-NP (5 mM, 7 hours), DA1 1 μM overnight. The protocol:
To analyze dimerization of ATAD3A under non-reducing conditions, the cells or tissues were harvested and lysed with total lysates buffer. An equal amount of proteins was subject to 8% SDS-PAGE analysis in the presence or absence of β-mercaptoethanol (β-ME). For in vitro BMH crosslinking, the cell lysates were incubated with 1 mM BMH at r.t. for up to 25 min and quenched with 0.1% β-ME, followed by SDS-PAGE analysis. For in-vivo crosslinking, the cells were treated with cell-permeable crosslinker BMH (1 mM) for 20 min at 37° C. After crosslinking, the cells were quenched in PBS with 0.1% β-ME. For DSP crosslinking, the cells were treated with cell-permeable crosslinker for 5 min at 37° C., followed by quenching and washing with 10 mM Glycine in PBS. For formaldehyde (FA) crosslinking, the cells were incubated with PBS buffer containing 1% FA for 20 min at r.t., and the crosslinking reaction was terminated by washing in PBS containing 100 mM glycine. The cells were then lysed and subject to 8% SDS-PAGE analysis. For DTSSP crosslinking of proteins in mitochondrial fractions, isolated mitochondria samples were suspended in the mitochondrial lysis buffer (250 mM sucrose, 20 mM HEPES-NaOH, pH 7.5, 10 mM KCl, 1.5 mM MgCl2, 1 mM EDTA, 1 mM EGTA and protease inhibitor). An equal amount of crude mitochondria was incubated at 30° C. in the presence of 0.5 mM DTSSP. […]

The subject of assay [1] is neurons derived from HD patients. The assay is described as follows: mitoROS (mitoSOX probe) in neurons derived from iPS cells. The class given is cell-based, human. Here is the method: iPS cells from a normal subject and a HD patient (carrying 41 CAG repeats) were differentiated into neurons using the protocol from our previous studies. Briefly, the iPS cells were plated onto 6-well plates precoated with 2.5% Matrigel and allowed to reach 90% confluence in feeder-free medium. For the first 10 days, the cells were treated with SB431542 (10 μM; Tocris Bioscience) and Noggin (100 ng/ml) in Neural Media (NM) containing Neurobasal and DMEM (1:1), B-27 supplement minus vitamin A (50×, Invitrogen), N2 supplement (100×, Invitrogen), GlutaMax (Invitrogen, 100×), FGF2 ([…]) and EGF ([…]), and 100 units/ml penicillin and 100 μg/ml streptomycin). For the next 10 days, the cells were treated with human recombinant Sonic hedgehog (SHH, 200 ng/ml), DKK1 (100 ng/ml) and BDNF (20 ng/ml), and 10 μM Y27632 (Sigma) in neuronal differentiation medium containing Neurobasal and DMEM (1:3), B27, N2, GlutaMax, and PS. Cells were then switched to treatment with BDNF (20 ng/ml), ascorbic acid (200 μM, Sigma-Aldrich), cAMP (0.5 mM, Sigma-Aldrich), and Y27632 (10 μM) in neuronal differentiation medium. All growth factors were purchased from PeproTech (Rocky Hill, NJ, USA). […]
To examine mitochondrial superoxide production, the cells were stained with MitoSOX (Invitrogen, 5 μM for 10 min) at 37° C. […] At least 150 cells/group were counted and quantitated.

Another assay deals with HdhQ7 and HdhQ111 cells. The assay is described as follows: Mitochondrial respiratory activity (Seahorse analyzer). The class given is cell-based, mouse. The protocol: Mitochondrial respiration activity in HdhQ7 and HdhQ111 cells was analyzed using a Seahorse Bioscience XFp Extracellular Flux Analyzer. The cells were seeded in XFp […] microplates at 6,000 cells per well in 50 μl of growth medium. One hour prior to measuring oxygen consumption, the cell culture media was replaced with XF assay medium and maintained in a non-CO2 incubator for 1 h. The sensor cartridges were placed in the XFp Analyzer according to the manufacturer's instructions for the Mito Stress Test kit. In brief, mitochondrial function was determined by the sequential injection of oligomycin A (2.5 μg/mL), FCCP (1 μM), and antimycin A (4 μM). Following each experiment, the total cellular number of each well was determined using DAPI staining.

Where no end group is shown, it is not given here.

“YGRKKRRQRRRGGEDKRKT-NH2 [DA1, YGRKKRRQRRR-GG-EDKRKT-NH2]”: the “mitochondrial oxidative stress (mitoROS)” value with HdhQ111 cells is “suppressed”. For the same substance, in the assay on TFAM and mtDNA LSP, the “binding of TFAM and mtDNA” value is “restored”. Also, the “dimerization of ATAD3A” value on ATAD3A is “abolished”. For the same substance, the mitoROS result in assay [1] is listed as “decreased”. Further, the mitochondrial respiratory activity result in the assay with HdhQ7 and HdhQ111 cells (HdhQ7 cells) is given as “minor effects”. Besides, in the assay with HdhQ7 and HdhQ111 cells (HdhQ111 cells), the ATP production result is given as “improved”, the maximal respiratory capacity entry is reported as “improved” and the spare respiratory capacity entry was “improved”. Also, the mitochondrial respiratory defects entry in the assay with HdhQ7 and HdhQ111 cells (HdhQ111 cells, 1 μM/day for 4 days) was “attenuated”.

Values taken from US12403184B2, “Compositions and methods for treating neurodegenerative disroders” (priority 2018, dated 2025).
